Source: patent publication US4929635A, “New derivatives of 4-vinyl benzoic acid, process for their preparation and their uses in therapeutics and as ligands” (Laboratoires Chauvin-Blache, priority 1984, dated 1990)

target: T1, cytosolic receptor of retinoic acid (C.R.A.B.P.) of rat testicles (Rattus norvegicus, UniProt P62966); test: Affinity for the cytosolic receptor of retinoic acid (C.R.A.B.P.) of rat testicles: inhibition of specific linking of tritiated retinoic acid; type: binding; conditions: ligand 4 μM; tritiated retinoic acid 20 nM; rat testicle cytosol 2 mg/ml; 16 h at 4° C., pH 7.4; unmarked retinoic acid = 100% inhibition
T1 construct: to obtain the cytosol; from tissue; host or cells: rat testicles, 105000×g cytosol
T1 sequence (P62966 whole entry): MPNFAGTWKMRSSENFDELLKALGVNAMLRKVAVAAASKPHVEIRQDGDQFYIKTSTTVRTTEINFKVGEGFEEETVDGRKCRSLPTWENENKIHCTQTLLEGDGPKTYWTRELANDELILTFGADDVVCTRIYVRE
Protocol: Affinity for the cytosolic receptor of retinoic acid (C.R.A.B.P.) of rat testicles
The affinity of the compounds of the formula I for the C.R.A.B.P. receptor is determined by measurement of the inhibition of the specific linking of tritiated retinoic acid (*AR) by the various compounds according to the method of ONG and CHYTIL (J. Biol. Chem., 1975, 250, 6113) modified:
The rat testicles thawed to 4° C. are placed in Tris-HCl 50 mM, DTE 2 mM buffer, pH 7.4, then ground in a Potter Teflon/glass grinder (three times at 800 rpm). The ground product is centrifuged at 4000×g for 10 min at 4° C.
The supernatant liquor is then centrifuged for 60 min at 105000×g at 4° C. to obtain the cytosol. The final protein concentration of the cytosol is adjusted to 2 mg/ml.
200 μl of cytosol are incubated for 16 h at 4° C. in the presence of tritiated retinoic acid 20 nM (specific activity: 30 Ci/mmole), in the presence of the ligands to be tested at the concentration of 4 μM.
The incubations are followed by treatment with charcoal-dextran (1%-0.0025%) for 30 min at 4° C. The bound radioactivity is determined by counting in liquid scintillation.

inhibition at 4 µM	SMILES
27.5%	C/C(=C\c1ccc(C(=O)N2CCN(C)CC2)cc1)c1ccc(C(C)C)cc1 [Compound 11]
18.5%	C/C(=C\c1ccc(C(=O)O)cc1)c1cccs1 [Compound 9]
68.5%	C/C(=C\c1ccc(C(=O)O)cc1)c1ccc(C(C)C)cc1 [Compound 3, (E)-4-[2-(4-isopropylphenyl)propenyl]benzoic acid]
67.5%	C/C(=C\c1ccc(C(=O)O)cc1)c1cccc(C(C)C)c1 [Compound 12]
75%	C/C(=C\c1ccc(C(=O)O)cc1)c1ccc(C(C)C)s1 [Compound 14]
72.5%	C/C(=C\c1ccc(C(=O)O)cc1)c1cc(C(C)C)cs1 [Compound 13]
18.9%	C/C(=C\c1ccc(C(=O)O)cc1)c1ccccc1 [Compound 1]
